Laboratory results taken from ChEMBL document CHEMBL1201862, “PubChem BioAssay data set” (2004).
One block for each compound: values may come before it. Calls of active or inactive are those of the source.

Tests used:
[1] = molecular target: T1, Eukaryotic translation initiation factor 2-alpha kinase 3 (Homo sapiens, UniProt Q9NZJ5); assay: Dose response cell-based high-throughput screening assay to measure PERK inhibition. [Related pubchem assays: 1416 ]; assay type: functional
[2] = molecular target: T1, Eukaryotic translation initiation factor 2-alpha kinase 3; assay: Counterscreen assay for PERK inhibitors: Dose response cell-based high throughput screening assay to measure inhibition of PERK at 6 hours. [Related pubchem assays: 1522, 1416 ]; assay type: functional
[3] = molecular target: Dual specificity protein phosphatase 3 (Homo sapiens, UniProt P51452); assay: VHR1 inhibitor Ki determination, SAR follow-up, biochemical, colorimetric (AID 2004)
[4] = molecular target: T2, Heat shock factor protein 1 (Mus musculus, UniProt P38532); assay: inhibition of MG132-induced HSE-luciferase signal, confirmation, cell-based, NIH3T3, luminescence, dose retest (AID 2382); assay type: functional;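 also: NIH3T3 fibroblasts with HSF1-driven luciferase reporter stressed by proteasome inhibitor MG132; luminescence from HSF1-driven luciferase expression after 8 hours of MG132 stress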
T2 sequence (P38532 whole entry): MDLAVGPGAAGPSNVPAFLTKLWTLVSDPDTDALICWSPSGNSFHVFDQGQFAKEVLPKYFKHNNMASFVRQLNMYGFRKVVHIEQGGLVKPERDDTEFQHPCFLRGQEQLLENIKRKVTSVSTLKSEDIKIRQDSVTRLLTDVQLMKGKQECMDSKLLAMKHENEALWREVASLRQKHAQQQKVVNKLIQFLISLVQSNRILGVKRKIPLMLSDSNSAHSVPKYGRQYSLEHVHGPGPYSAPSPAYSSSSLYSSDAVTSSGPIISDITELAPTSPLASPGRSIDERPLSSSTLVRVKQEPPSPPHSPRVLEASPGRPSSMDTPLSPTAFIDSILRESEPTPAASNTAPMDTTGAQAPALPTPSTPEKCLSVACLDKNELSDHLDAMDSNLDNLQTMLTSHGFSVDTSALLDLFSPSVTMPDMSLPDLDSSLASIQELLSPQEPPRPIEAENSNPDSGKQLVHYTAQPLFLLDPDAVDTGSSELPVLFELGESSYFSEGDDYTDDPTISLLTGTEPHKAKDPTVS

[5] = molecular target: Lysosomal acid glucosylceramidase (Homo sapiens, UniProt P04062); assay: Dose response cell-based high throughput screening assay to identify enhancers of beta-glucosidase activity. [Related pubchem assays: 784 ]; assay type: functional
[6] = polyadenylation inhibitors in yeast reporter, dose response, luminescence, S. cerevisiae SKY197-pL101 (AID 2525); assay type: functional, cell-based
[7] = Luminescence Cell-Based Dose Confirmation HTS to Identify Inhibitors of Polyadenylation.; assay type: functional
[8] = molecular target: Photoreceptor-specific nuclear receptor (Homo sapiens, UniProt Q9Y5X4); assay type: functional;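 also: potency for compounds that break the NR2E3 corepressor complex and count as activators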
[9] = molecular target: Peroxisome proliferator-activated receptor gamma/Nuclear receptor corepressor 2 (Homo sapiens, UniProt P37231+Q9Y618); assay type: functional
Chain of Peroxisome proliferator-activated receptor gamma/Nuclear receptor corepressor 2 (P37231 whole entry): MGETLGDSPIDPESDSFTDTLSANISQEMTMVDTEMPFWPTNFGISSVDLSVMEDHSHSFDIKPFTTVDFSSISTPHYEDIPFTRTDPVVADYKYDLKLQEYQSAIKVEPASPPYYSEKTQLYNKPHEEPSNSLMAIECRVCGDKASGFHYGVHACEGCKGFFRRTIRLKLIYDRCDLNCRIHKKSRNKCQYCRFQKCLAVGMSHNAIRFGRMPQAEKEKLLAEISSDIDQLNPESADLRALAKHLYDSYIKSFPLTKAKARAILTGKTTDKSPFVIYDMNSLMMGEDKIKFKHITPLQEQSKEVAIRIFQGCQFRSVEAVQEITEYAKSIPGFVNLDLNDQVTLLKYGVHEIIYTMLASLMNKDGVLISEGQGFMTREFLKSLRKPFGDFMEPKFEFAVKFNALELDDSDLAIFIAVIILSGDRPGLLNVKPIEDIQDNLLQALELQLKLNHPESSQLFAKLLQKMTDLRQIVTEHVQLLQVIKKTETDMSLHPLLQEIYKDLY
Chain of Peroxisome proliferator-activated receptor gamma/Nuclear receptor corepressor 2 (Q9Y618 whole entry): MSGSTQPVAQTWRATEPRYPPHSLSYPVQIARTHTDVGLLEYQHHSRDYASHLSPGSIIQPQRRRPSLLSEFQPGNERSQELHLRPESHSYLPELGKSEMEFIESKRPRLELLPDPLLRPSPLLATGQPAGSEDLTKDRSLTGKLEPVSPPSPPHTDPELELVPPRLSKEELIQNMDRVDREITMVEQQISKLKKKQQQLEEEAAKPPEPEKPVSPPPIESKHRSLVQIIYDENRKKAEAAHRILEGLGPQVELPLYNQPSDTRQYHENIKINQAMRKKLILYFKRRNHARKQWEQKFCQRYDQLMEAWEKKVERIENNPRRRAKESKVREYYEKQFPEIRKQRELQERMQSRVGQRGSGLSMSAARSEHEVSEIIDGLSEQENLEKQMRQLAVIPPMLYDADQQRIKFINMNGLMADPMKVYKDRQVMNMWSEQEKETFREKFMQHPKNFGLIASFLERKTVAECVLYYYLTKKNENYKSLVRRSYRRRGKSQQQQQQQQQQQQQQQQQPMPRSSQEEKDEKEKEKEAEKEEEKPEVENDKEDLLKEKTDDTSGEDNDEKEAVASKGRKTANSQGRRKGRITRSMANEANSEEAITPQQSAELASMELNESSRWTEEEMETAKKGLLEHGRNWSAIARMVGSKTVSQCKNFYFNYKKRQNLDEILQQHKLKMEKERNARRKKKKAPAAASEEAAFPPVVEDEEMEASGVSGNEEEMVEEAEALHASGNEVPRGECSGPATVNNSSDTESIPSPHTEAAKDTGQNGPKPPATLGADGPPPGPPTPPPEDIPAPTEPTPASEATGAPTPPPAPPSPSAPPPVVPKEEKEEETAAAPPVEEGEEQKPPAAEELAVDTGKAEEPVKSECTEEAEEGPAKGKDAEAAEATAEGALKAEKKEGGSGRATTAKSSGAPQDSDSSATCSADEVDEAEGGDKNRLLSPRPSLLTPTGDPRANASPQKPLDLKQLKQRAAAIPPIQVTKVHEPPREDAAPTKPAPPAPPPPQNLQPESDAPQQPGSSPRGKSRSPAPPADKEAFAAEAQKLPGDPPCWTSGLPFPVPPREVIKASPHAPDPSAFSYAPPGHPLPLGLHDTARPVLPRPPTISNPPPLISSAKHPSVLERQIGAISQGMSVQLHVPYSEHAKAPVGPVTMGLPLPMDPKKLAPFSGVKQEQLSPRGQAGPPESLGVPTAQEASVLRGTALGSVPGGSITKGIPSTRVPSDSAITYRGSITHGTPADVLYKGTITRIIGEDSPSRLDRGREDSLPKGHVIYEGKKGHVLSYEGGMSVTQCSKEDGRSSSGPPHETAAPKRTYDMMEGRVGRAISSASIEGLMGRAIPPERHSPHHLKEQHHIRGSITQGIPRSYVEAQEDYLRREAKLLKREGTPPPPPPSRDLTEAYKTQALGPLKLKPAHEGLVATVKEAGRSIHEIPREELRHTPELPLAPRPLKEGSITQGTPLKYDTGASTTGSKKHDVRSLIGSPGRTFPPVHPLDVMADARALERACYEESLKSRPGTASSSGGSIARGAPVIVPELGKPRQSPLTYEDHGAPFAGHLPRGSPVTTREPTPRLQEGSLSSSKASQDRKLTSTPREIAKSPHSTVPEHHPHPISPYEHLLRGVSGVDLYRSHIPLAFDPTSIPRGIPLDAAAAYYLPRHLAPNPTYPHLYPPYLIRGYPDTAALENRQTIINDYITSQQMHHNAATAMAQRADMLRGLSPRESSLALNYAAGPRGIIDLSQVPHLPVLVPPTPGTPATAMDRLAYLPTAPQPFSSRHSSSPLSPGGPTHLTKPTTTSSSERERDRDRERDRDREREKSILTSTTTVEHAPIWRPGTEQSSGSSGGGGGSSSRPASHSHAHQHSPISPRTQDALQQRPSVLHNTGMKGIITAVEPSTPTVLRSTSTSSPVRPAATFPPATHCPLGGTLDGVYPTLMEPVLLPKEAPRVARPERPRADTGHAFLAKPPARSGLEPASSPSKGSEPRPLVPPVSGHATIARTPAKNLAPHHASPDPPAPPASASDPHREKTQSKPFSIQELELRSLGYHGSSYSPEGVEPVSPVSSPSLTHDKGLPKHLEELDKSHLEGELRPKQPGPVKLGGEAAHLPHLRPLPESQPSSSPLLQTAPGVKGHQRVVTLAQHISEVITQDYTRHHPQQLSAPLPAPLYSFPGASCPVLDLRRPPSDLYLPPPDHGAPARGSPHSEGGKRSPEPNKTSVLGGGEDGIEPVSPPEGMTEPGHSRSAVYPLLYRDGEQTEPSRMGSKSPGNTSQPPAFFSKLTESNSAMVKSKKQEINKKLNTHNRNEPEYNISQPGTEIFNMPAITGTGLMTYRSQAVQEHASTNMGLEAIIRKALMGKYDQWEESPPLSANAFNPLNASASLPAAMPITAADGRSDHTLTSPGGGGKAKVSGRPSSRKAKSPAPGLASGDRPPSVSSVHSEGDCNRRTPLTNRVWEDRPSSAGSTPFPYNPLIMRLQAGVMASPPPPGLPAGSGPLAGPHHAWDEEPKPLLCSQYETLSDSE

[10] = nonselective inhibitors of cellular cAMP signaling, dose response, counter-screen for MC4R biased antagonist project, cell-based, TR-FRET cAMP detection (AID 602305); assay type: functional;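 also: U2OS cells stimulated with forskolin near its EC80 as the cAMP inducer; potency is for inhibition of forskolin-stimulated cAMP signaling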
Melanocortin receptor 4 = Melanocortin receptor 4 (Homo sapiens, UniProt P32245); assay: MC4R antagonist potency on cAMP, dose response, cell-based, TR-FRET, biased antagonists (AID 602298); assay type: functional;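 also: antagonist potency against agonist-stimulated cAMP production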
Cytochrome P450 2C19 = Cytochrome P450 2C19 (Homo sapiens, UniProt P33261); assay: qHTS Assay for Inhibitors and Substrates of Cytochrome P450 2C19. [Related pubchem assays: 410 ]; assay type: ADME; conditions: read-out: Potency
Cytochrome P450 2C9 = Cytochrome P450 2C9 (Homo sapiens, UniProt P11712); conditions: Potency
Chain of Cytochrome P450 2C9 (P11712 whole entry): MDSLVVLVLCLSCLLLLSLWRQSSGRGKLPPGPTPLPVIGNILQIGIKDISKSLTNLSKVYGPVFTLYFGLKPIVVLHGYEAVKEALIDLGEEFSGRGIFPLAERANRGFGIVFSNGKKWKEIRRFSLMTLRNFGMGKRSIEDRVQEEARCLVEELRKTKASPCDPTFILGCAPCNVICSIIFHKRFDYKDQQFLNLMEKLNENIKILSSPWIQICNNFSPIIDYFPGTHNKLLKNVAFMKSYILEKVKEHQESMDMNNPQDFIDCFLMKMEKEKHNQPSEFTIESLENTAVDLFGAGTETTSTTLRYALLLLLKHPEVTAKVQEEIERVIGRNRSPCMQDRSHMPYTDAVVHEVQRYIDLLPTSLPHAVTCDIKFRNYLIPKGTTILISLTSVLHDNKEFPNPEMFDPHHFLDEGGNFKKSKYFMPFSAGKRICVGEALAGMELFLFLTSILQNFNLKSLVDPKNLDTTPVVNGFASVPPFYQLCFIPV

[11] = molecular target: T3, Zinc finger protein mex-5 (Caenorhabditis elegans, UniProt Q9XUB2); assay: MEX-5/TCR-2 RNA interaction inhibitors, dose response, biochemical, C. elegans, fluorescence polarization (AID 1960)
T3 sequence (Q9XUB2 whole entry): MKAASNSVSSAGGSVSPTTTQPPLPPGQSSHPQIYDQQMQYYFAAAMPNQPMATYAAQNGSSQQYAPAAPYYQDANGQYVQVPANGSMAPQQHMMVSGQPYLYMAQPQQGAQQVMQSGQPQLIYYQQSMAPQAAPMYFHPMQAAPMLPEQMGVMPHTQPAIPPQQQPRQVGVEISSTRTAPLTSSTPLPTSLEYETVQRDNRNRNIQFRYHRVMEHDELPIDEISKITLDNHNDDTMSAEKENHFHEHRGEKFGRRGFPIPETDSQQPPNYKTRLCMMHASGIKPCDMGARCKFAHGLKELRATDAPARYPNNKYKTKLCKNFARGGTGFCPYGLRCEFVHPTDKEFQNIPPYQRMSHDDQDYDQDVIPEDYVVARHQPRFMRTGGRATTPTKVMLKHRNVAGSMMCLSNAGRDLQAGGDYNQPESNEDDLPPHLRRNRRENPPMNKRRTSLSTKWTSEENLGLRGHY

Protein Rev = Protein Rev (Human immunodeficiency virus type 1 group M subtype B (isolate HXB2)(HIV-1), UniProt P04618); assay: inhibitors of Rev binding to RRE RNA, dose response, biochemical, fluorescence polarization, HIV-1 (AID 434976); parameters: species or system Human immunodeficiency virus 1
[12] = molecular target: T4, RNA-binding protein pos-1 (Caenorhabditis elegans, UniProt G5EF15); assay: inhibitors of POS-1/mex-3 RNA binding, dose response, biochemical, fluorescence polarization (AID 1964);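 also: purified POS-1 fused to maltose binding protein made in E. coli; potency of compounds blocking POS-1 binding to fluorescent RNA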
T4 sequence (G5EF15 whole entry): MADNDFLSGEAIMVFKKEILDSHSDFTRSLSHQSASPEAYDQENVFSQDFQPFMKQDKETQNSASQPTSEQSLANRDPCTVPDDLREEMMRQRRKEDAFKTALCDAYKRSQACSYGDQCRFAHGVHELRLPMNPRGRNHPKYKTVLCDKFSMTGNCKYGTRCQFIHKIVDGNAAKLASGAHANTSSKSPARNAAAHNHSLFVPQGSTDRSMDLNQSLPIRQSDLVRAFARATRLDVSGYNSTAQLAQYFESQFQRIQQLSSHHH

[13] = molecular target: Female germline-specific tumor suppressor gld-1 (Caenorhabditis elegans, UniProt Q17339); assay: inhibitors of GLD-1 binding to TGE RNA, dose response, biochemical, fluorescence polarization, C. elegans (AID 2802);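 also: fluorescence polarization of labeled TGE RNA bound by purified gld-1 protein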
ORF 73 = molecular target: T5, ORF 73 (Human herpesvirus 8, UniProt O40947); assay: inhibitors of C-LANA binding to LBS DNA, dose response, biochemical, fluorescence polarization, cherry-picked samples (AID 504725); parameters: species or system Human gammaherpesvirus 8;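 also: fluorescence polarization of a labeled DNA duplex reporting LANA DNA binding; potency is for inhibitors that block LANA binding to the DNA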
T5 sequence (O40947 whole entry): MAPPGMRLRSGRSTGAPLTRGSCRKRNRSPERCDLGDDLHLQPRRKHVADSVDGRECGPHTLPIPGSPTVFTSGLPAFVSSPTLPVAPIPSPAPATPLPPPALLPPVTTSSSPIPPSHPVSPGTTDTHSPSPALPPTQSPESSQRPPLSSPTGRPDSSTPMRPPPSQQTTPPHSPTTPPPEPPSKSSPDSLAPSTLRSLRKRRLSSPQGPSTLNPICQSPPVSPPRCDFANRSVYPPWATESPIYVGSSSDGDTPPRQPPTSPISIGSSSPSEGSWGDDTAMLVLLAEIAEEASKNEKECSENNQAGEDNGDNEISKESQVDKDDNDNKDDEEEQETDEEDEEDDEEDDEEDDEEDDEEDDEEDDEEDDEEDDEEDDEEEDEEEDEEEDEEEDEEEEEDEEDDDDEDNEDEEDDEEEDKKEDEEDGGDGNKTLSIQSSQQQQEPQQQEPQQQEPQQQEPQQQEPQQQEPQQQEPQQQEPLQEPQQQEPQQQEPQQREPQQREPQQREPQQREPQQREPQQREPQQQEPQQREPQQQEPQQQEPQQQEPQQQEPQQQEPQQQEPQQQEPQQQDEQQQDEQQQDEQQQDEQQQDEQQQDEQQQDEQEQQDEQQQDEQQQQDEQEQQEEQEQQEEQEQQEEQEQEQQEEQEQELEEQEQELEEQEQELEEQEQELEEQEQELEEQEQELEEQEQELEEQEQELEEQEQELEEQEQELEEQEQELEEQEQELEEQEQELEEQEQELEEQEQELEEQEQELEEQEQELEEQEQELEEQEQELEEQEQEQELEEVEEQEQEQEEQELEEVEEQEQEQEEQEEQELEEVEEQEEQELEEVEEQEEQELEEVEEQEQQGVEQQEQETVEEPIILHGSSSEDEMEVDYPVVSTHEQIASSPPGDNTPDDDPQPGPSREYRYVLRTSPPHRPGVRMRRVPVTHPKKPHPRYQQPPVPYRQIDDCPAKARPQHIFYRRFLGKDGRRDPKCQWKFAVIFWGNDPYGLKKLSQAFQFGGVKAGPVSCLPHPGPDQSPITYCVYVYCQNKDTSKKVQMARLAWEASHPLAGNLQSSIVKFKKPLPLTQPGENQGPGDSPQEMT

Salmon testes DNA = assay: DNA intercalators displacing acridine orange, dose response, artefact control for KSHV LANA DNA-binding inhibitor project, biochemical, fluorescence polarization, cherry-picked samples, set 2 (AID 504727); parameters: species or system Salmonidae
[14] = molecular target: Metabotropic glutamate receptor 4 (Rattus norvegicus, UniProt P31423); assay: Modulation of the Metabotropic Glutamate Receptor mGluR4: Rat PAM Potency. [Related pubchem assays (depositor defined):AID2437, AID2807]; assay type: functional
[15] = molecular target: Melanin-concentrating hormone receptor 1 (Homo sapiens, UniProt Q99705); assay: Late-stage fluorescence-based counterscreen for antagonists of the G-protein coupled receptor 7 (GPR7): cell-based dose response assay to identify antagonists of the melanin-concentrating hormone receptor 1 (MCHR1). [Related pubchem assays (depositor defined):AID1861, AID1880, AID1952, AID2148, AID2251, AID2257, AID485339]; assay type: functional;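 also: stimulated with 30 nM MCH peptide agonist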
Trypanosoma cruzi = assay: growth inhibition of intracellular Trypanosoma cruzi, dose response, cell-based, plate reader, dry powder, set 3 (AID 493197); assay type: functional
[16] = inhibitors of intracellular T. cruzi replication, confirmation, NIH3T3 host cells, beta-gal luminescence (AID 2044); assay type: functional, cell-based;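 also: intracellular parasites grown in NIH/3T3 mouse fibroblasts as host cells; luminescent beta-galactosidase reporter signal from transgenic T. cruzi replicating inside host cells; inhibitors lower the luminescence signal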
[17] = cytotoxicity toward NIH3T3 fibroblasts, dose response, counter-screen, cell-based, ATP luminescence, mouse fibroblasts (AID 2010); assay type: functional;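 also: cells exposed to compound for about 90 hours before reading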
[18] = molecular target: Polyadenylate-binding protein 1 (Homo sapiens, UniProt P11940); assay: PABP poly(A) RNA binding inhibitors, primary screen, biochemical, fluorescence polarization, uHTS (AID 2014)
[19] = molecular target: Eukaryotic translation initiation factor 4H (Homo sapiens, UniProt Q15056); assay: human eIF4H binding inhibitors, primary screen, translation initiation inhibitor project, biochemical, uHTS, fluorescence polarization (AID 2012)
Cytochrome P450 3A4 = Cytochrome P450 3A4 (Homo sapiens, UniProt P08684); conditions: Potency;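 also: confirmatory qHTS run detecting inhibitors and substrates of CYP3A4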
Chain of Cytochrome P450 3A4 (P08684 whole entry): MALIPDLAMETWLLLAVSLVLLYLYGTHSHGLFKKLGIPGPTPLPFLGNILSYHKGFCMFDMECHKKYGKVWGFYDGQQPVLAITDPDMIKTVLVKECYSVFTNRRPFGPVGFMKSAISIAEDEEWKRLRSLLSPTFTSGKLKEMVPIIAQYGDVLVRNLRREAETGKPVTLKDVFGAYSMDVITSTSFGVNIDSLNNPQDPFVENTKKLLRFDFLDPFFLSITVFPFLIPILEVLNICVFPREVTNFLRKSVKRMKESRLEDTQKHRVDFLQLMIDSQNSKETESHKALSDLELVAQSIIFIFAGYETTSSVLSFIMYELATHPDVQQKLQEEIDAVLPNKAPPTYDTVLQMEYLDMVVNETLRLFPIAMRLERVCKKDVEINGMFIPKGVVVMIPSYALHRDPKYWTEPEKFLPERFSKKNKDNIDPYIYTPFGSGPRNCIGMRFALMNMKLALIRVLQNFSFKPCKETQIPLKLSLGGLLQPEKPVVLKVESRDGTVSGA

T1 sequence (Q9NZJ5 whole entry): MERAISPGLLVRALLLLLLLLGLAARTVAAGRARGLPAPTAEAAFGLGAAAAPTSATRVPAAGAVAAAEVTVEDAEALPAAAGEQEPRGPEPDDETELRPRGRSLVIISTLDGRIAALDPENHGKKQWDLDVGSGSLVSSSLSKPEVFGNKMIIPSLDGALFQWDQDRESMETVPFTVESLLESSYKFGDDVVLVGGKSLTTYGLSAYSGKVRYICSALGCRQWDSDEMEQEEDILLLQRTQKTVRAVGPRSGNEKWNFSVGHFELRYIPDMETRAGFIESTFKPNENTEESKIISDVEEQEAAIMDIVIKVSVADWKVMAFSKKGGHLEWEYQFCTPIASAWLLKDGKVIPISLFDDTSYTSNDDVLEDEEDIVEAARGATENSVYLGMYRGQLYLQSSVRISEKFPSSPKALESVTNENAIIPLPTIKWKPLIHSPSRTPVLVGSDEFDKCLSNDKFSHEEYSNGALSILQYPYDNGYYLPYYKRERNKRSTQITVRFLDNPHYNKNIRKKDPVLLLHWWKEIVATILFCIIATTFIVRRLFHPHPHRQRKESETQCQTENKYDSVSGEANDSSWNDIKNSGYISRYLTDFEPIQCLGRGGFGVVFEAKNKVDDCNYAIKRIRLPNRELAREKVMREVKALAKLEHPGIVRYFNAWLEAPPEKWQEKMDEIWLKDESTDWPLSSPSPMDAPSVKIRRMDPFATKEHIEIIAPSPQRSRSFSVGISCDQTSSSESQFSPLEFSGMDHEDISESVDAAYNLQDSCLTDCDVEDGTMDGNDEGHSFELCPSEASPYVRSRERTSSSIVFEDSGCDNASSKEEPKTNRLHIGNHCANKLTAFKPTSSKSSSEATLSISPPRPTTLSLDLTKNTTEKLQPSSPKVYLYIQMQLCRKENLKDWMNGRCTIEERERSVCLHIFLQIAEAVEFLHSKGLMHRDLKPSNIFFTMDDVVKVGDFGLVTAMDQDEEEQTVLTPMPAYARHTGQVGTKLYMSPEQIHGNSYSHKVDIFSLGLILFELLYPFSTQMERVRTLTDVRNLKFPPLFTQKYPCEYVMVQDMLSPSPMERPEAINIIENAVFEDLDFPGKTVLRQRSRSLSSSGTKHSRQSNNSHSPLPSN

EC50 [1]: > 55.7 µM (not active)
EC50 [2]: > 55.7 µM (not active)
SMILES: O=C(NNc1ccccc1F)c1ccccc1

SMILES: Cc1ccc(S(=O)(=O)N2CCN(C(=O)c3cccc(F)c3)CC2)cc1
Ki [3]: 39.4 µM (inactive)
EC50 [4]: > 195 µM (not active)

EC50 [5]: > 10 µM (not active)
SMILES: CCC(C)n1cnc2c(c1=O)c1nc3ccccc3nc1n2Cc1ccc2c(c1)OCO2 (configuration not stated)

SMILES: N#CC1(C#N)C2=C(CCCC2)NC(c2ccccc2)C1(C#N)C#N (configuration not stated)
EC50 [6]: 3.77 µM (active)
EC50 [7]: 7.92 µM (active)

SMILES: O=C(O)c1cc(-c2ccc3c(c2)OCO3)nc2ccc(Br)cc12
IC50 [8]: > 39.8 µM (not active)
IC50 [9]: 1.76 µM (active)
IC50 [10]: > 64.6 µM (inactive)
IC50 (Melanocortin receptor 4): 35.7 µM (inactive)

SMILES: CCCC[C@@H]1C[C@H]1C(NP(=O)(c1ccccc1)c1ccccc1)c1ccc(Cl)cc1 (some centres not stated)
AC50 (Cytochrome P450 2C19): 10 µM (inconclusive)
AC50 (Cytochrome P450 2C9): 15.8 µM (inconclusive)

SMILES: O=C1CS/C(=C\[N+](=O)[O-])N1c1ccccc1
EC50 [11]: 190 µM (active)
IC50 (Protein Rev): 3.03 µM (active)
EC50 [12]: > 300 µM (not active)
IC50 [13]: > 59.6 µM (inactive)

AC50 (ORF 73): 59.9 µM (active)
SMILES: COC(=O)c1cc(N2CCN(C)CC2)nc2ccccc12
AC50 (Salmon testes DNA): 137 µM (active)

EC50 [14]: 0.03 µM (active)
SMILES: O=C(Nc1ccc(N2C(=O)c3cccc(Cl)c3C2=O)c(Cl)c1)c1ccccn1

IC50 [15]: 17.4 µM (inactive)
SMILES: Cc1ccc(-n2ncc(Cl)c(Oc3ccc(F)cc3F)c2=O)cc1

SMILES: CN(Cc1ccccc1)C(=O)C1CCCN(Cc2ccc([N+](=O)[O-])cc2)C1 (configuration not stated)
AC50 (Trypanosoma cruzi): 7.63 µM (active)

SMILES: COc1ccc(N=C(C)N(C)CCNS(=O)(=O)c2ccc(Cl)cc2)cc1Cl
EC50 [16]: 0.271 µM (active)
EC50 [17]: > 60 µM (not active)
IC50 [18]: 5.82 µM (active)
IC50 [19]: > 100 µM (inactive)

AC50 (Cytochrome P450 3A4): 39.8 µM (inconclusive)
SMILES: COc1ccc(-c2coc3c(OC)c(OC)cc(O)c3c2=O)cc1 [ISOTECTORIGENIN, 7-METHYL ETHER]
